Reference: PubChem BioAssay (NCI)
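How tested: cells in 96-well plates exposed to compound for 48 hours at five concentrations. The concentration for 50% growth inhibition is given as GI50. Definition used: TGI = concentration required for complete inhibition of growth.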

Experiments:
Assay in all cases: inhibition of tumour cell growth, NCI panel, 48 h
MOLT-4 leukemia = system: MOLT-4 leukemia
CCRF-CEM leukemia = system: CCRF-CEM leukemia
HOP-92 NSCLC = system: HOP-92 NSCLC
RXF 393 renal = system: RXF 393 renal
UACC-62 melanoma = system: UACC-62 melanoma
SF-539 CNS = system: SF-539 CNS
LOX IMVI melanoma = system: LOX IMVI melanoma
IGROV1 ovarian = system: IGROV1 ovarian
HCT-15 colon = system: HCT-15 colon
NCI/ADR-RES ovarian = system: NCI/ADR-RES ovarian
NCI-H522 lung = system: NCI-H522 lung
HT29 colon = system: HT29 colon
SK-MEL-28 melanoma = system: SK-MEL-28 melanoma
OVCAR-3 ovarian = system: OVCAR-3 ovarian
786-0 renal = system: 786-0 renal
COLO 205 colon = system: COLO 205 colon
MCF7 breast = system: MCF7 breast
SNB-75 CNS = system: SNB-75 CNS
UACC-257 melanoma = system: UACC-257 melanoma
MDA-MB-231 breast = system: MDA-MB-231 breast
U251 CNS = system: U251 CNS
HOP-62 NSCLC = system: HOP-62 NSCLC
NCI-H226 lung = system: NCI-H226 lung
A549 NSCLC = system: A549 NSCLC
OVCAR-8 ovarian = system: OVCAR-8 ovarian
SN12C renal = system: SN12C renal
K-562 leukemia = system: K-562 leukemia
UO-31 renal = system: UO-31 renal
M14 melanoma = system: M14 melanoma
SK-MEL-5 melanoma = system: SK-MEL-5 melanoma
A498 renal = system: A498 renal
DU-145 prostate = system: DU-145 prostate
OVCAR-5 ovarian = system: OVCAR-5 ovarian
SF-268 CNS = system: SF-268 CNS
T-47D breast = system: T-47D breast
SK-OV-3 ovarian = system: SK-OV-3 ovarian
MDA-MB-435 = system: MDA-MB-435
HCT-116 colon = system: HCT-116 colon
HS 578T breast = system: HS 578T breast
EKVX NSCLC = system: EKVX NSCLC
MALME-3M melanoma = system: MALME-3M melanoma
CAKI-1 renal = system: CAKI-1 renal
RPMI-8226 leukemia = system: RPMI-8226 leukemia
TK-10 renal = system: TK-10 renal
OVCAR-4 ovarian = system: OVCAR-4 ovarian
HL-60(TB) leukemia = system: HL-60(TB) leukemia
NCI-H23 lung = system: NCI-H23 lung
SK-MEL-2 melanoma = system: SK-MEL-2 melanoma
BT-549 breast = system: BT-549 breast
SNB-19 CNS = system: SNB-19 CNS
ACHN renal = system: ACHN renal
SF-295 CNS = system: SF-295 CNS
PC-3 prostate = system: PC-3 prostate
NCI-H460 lung = system: NCI-H460 lung
KM12 colon = system: KM12 colon
SW-620 colon = system: SW-620 colon

CN(C)C=Nc1c2ccccc2nc2ccccc12
TGI (MOLT-4 leukemia): 9.05 µM
TGI (CCRF-CEM leukemia): 21.2 µM
TGI (HOP-92 NSCLC): 22.3 µM
TGI (RXF 393 renal): 16.4 µM
TGI (UACC-62 melanoma): 7.65 µM
TGI (SF-539 CNS): 10.4 µM
TGI (LOX IMVI melanoma): 7.13 µM
TGI (IGROV1 ovarian): 26.3 µM
TGI (HCT-15 colon): 32.8 µM
TGI (NCI/ADR-RES ovarian): 34.6 µM
TGI (NCI-H522 lung): 4.99 µM
TGI (HT29 colon): 14.5 µM
TGI (SK-MEL-28 melanoma): 5.42 µM
TGI (OVCAR-3 ovarian): 13.4 µM
TGI (786-0 renal): 16.9 µM
TGI (COLO 205 colon): 8.87 µM
TGI (MCF7 breast): 12.1 µM
TGI (SNB-75 CNS): 13.6 µM
TGI (UACC-257 melanoma): 9.3 µM
TGI (MDA-MB-231 breast): 21.5 µM
TGI (U251 CNS): 15 µM
TGI (HOP-62 NSCLC): 25.4 µM
TGI (NCI-H226 lung): 9.06 µM
TGI (A549 NSCLC): 17.3 µM
TGI (OVCAR-8 ovarian): 18.3 µM
TGI (SN12C renal): 11.9 µM
TGI (K-562 leukemia): 22.6 µM
TGI (UO-31 renal): 29.5 µM
TGI (M14 melanoma): 16.2 µM
TGI (SK-MEL-5 melanoma): 12.5 µM
TGI (A498 renal): 21 µM
TGI (DU-145 prostate): 39.7 µM
TGI (OVCAR-5 ovarian): 32.8 µM
TGI (SF-268 CNS): 13.1 µM
TGI (T-47D breast): 9.67 µM
TGI (SK-OV-3 ovarian): 23.4 µM
TGI (MDA-MB-435): 15.1 µM
TGI (HCT-116 colon): 17.8 µM
TGI (HS 578T breast): 6.82 µM
TGI (EKVX NSCLC): 29.1 µM
TGI (MALME-3M melanoma): 12.7 µM
TGI (CAKI-1 renal): > 100 µM
TGI (RPMI-8226 leukemia): 6.88 µM
TGI (TK-10 renal): 40 µM
TGI (OVCAR-4 ovarian): 21.1 µM
TGI (HL-60(TB) leukemia): 18.2 µM
TGI (NCI-H23 lung): 15.8 µM
TGI (SK-MEL-2 melanoma): 9.26 µM
TGI (BT-549 breast): 13.2 µM
TGI (SNB-19 CNS): 17.9 µM
TGI (ACHN renal): 34 µM
TGI (SF-295 CNS): 21.6 µM
TGI (PC-3 prostate): 14.5 µM

COc1cc([N+](=O)[O-])c(OC)cc1-c1nc2sc(C)cn2c1/C(N)=N/C(=N)N
GI50 (MOLT-4 leukemia): > 100 µM
TGI (MOLT-4 leukemia): > 100 µM
GI50 (CCRF-CEM leukemia): 18 µM
TGI (CCRF-CEM leukemia): > 100 µM
GI50 (HOP-92 NSCLC): 24.1 µM
TGI (HOP-92 NSCLC): 88.3 µM
GI50 (RXF 393 renal): 39.8 µM
TGI (RXF 393 renal): > 100 µM
GI50 (UACC-62 melanoma): 23.8 µM
TGI (UACC-62 melanoma): 52.4 µM
GI50 (SF-539 CNS): 27.3 µM
TGI (SF-539 CNS): > 100 µM
GI50 (LOX IMVI melanoma): 30.4 µM
TGI (LOX IMVI melanoma): > 100 µM
GI50 (IGROV1 ovarian): 32.9 µM
TGI (IGROV1 ovarian): > 100 µM
GI50 (HCT-15 colon): > 100 µM
TGI (HCT-15 colon): > 100 µM
GI50 (NCI/ADR-RES ovarian): > 100 µM
TGI (NCI/ADR-RES ovarian): > 100 µM
GI50 (NCI-H522 lung): 26.5 µM
TGI (NCI-H522 lung): > 100 µM
GI50 (HT29 colon): > 100 µM
TGI (HT29 colon): > 100 µM
GI50 (SK-MEL-28 melanoma): 7.02 µM
TGI (SK-MEL-28 melanoma): > 100 µM
GI50 (NCI-H460 lung): 43.7 µM
TGI (NCI-H460 lung): > 100 µM
GI50 (OVCAR-3 ovarian): 27.6 µM
TGI (OVCAR-3 ovarian): > 100 µM
GI50 (786-0 renal): > 100 µM
TGI (786-0 renal): > 100 µM
GI50 (COLO 205 colon): > 100 µM
TGI (COLO 205 colon): > 100 µM
GI50 (MCF7 breast): 3.92 µM
TGI (MCF7 breast): > 100 µM
GI50 (SNB-75 CNS): > 100 µM
TGI (SNB-75 CNS): > 100 µM
GI50 (UACC-257 melanoma): 18.4 µM
TGI (UACC-257 melanoma): 67 µM
GI50 (MDA-MB-231 breast): 16.1 µM
TGI (MDA-MB-231 breast): 45.1 µM
GI50 (U251 CNS): 6.49 µM
TGI (U251 CNS): > 100 µM
GI50 (HOP-62 NSCLC): 71.3 µM
TGI (HOP-62 NSCLC): > 100 µM
GI50 (NCI-H226 lung): 43.2 µM
TGI (NCI-H226 lung): > 100 µM
GI50 (A549 NSCLC): 40.7 µM
TGI (A549 NSCLC): > 100 µM
GI50 (OVCAR-8 ovarian): 35.7 µM
TGI (OVCAR-8 ovarian): > 100 µM
GI50 (SN12C renal): 18.9 µM
TGI (SN12C renal): 49.1 µM
GI50 (K-562 leukemia): 2.59 µM
TGI (K-562 leukemia): > 100 µM
GI50 (UO-31 renal): 38.3 µM
TGI (UO-31 renal): > 100 µM
GI50 (M14 melanoma): > 100 µM
TGI (M14 melanoma): > 100 µM
GI50 (SK-MEL-5 melanoma): 28.3 µM
TGI (SK-MEL-5 melanoma): > 100 µM
GI50 (KM12 colon): 2.24 µM
TGI (KM12 colon): 11.1 µM
GI50 (A498 renal): 27.3 µM
TGI (A498 renal): 69.1 µM
GI50 (DU-145 prostate): 16.1 µM
TGI (DU-145 prostate): > 100 µM
GI50 (SW-620 colon): 5.78 µM
TGI (SW-620 colon): > 100 µM
GI50 (OVCAR-5 ovarian): > 100 µM
TGI (OVCAR-5 ovarian): > 100 µM
GI50 (SF-268 CNS): 22 µM
TGI (SF-268 CNS): > 100 µM
GI50 (T-47D breast): > 100 µM
TGI (T-47D breast): > 100 µM
GI50 (SK-OV-3 ovarian): > 100 µM
TGI (SK-OV-3 ovarian): > 100 µM
GI50 (MDA-MB-435): 16.1 µM
TGI (MDA-MB-435): > 100 µM
GI50 (HCT-116 colon): > 100 µM
TGI (HCT-116 colon): > 100 µM
GI50 (HS 578T breast): 25.2 µM
TGI (HS 578T breast): 89.2 µM
GI50 (EKVX NSCLC): 15.1 µM
TGI (EKVX NSCLC): 50.9 µM
GI50 (MALME-3M melanoma): 13 µM
TGI (MALME-3M melanoma): 45.2 µM
GI50 (CAKI-1 renal): > 100 µM
TGI (CAKI-1 renal): > 100 µM
GI50 (RPMI-8226 leukemia): 84.1 µM
TGI (RPMI-8226 leukemia): > 100 µM
GI50 (TK-10 renal): 20.3 µM
TGI (TK-10 renal): 50.4 µM
GI50 (OVCAR-4 ovarian): > 100 µM
TGI (OVCAR-4 ovarian): > 100 µM
GI50 (HL-60(TB) leukemia): > 100 µM
TGI (HL-60(TB) leukemia): > 100 µM
GI50 (NCI-H23 lung): 89.6 µM
TGI (NCI-H23 lung): > 100 µM
GI50 (BT-549 breast): 29.8 µM
TGI (BT-549 breast): > 100 µM
GI50 (SNB-19 CNS): 39.4 µM
TGI (SNB-19 CNS): > 100 µM
GI50 (ACHN renal): 50.2 µM
TGI (ACHN renal): > 100 µM
GI50 (SF-295 CNS): 16.6 µM
TGI (SF-295 CNS): > 100 µM
GI50 (PC-3 prostate): 45.9 µM
TGI (PC-3 prostate): > 100 µM

C#CC[C@@H]1C[C@]2(C)[C@H]3CC[C@@H]4[C@H]5C(C(=C)C)CC[C@]5(C(=O)NCCCCCCCCN)CC[C@@]4(C)[C@]3(C)CC[C@H]2C(C)(C)[C@H]1OC(C)=O (stereo partly specified)
GI50 (UO-31 renal): 1.46 µM
TGI (UO-31 renal): 2.84 µM
GI50 (KM12 colon): 1.73 µM
TGI (KM12 colon): 3.22 µM
GI50 (A498 renal): 2.25 µM
TGI (A498 renal): 5.35 µM
GI50 (SW-620 colon): 1.71 µM
TGI (SW-620 colon): 3.31 µM
